Active and inactive are the calls of the source.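 The calls were made as follows: active = AC50 no more than tenfold above the top dose tested, or full inhibition at every dose with a flat fit (cut at about 19 µM in these data); inconclusive = flat curve fit with inhibition between 30% and 70%, or poor fit; inactive = AC50 more than tenfold above the top dose tested.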
Test system: HMLE_sh_eGFP viability, CellTiter-Glo luminescence, 72 h
Assay: cytotoxicity in HMLE control line with eGFP shRNA, dose response, counter-screen for HMLE_sh_ECad selective toxicity project, cell-based, HMLE_sh_eGFP, luminescence (AID 463074);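 also: counterscreen control line to flag general toxicity for the HMLE_sh_ECad screen; potency for loss of viability as luminescence drops below DMSO wells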

| Compound | AC50 |
| --- | --- |
| CN(C)c1ccc(-c2cc(O)c3ncccc3c2)cc1 | 12.8 µM |
| Cc1[nH]n(-c2ncc(-c3ccc(Cl)cc3)s2)c(=O)c1C(c1ccc(Cl)cc1)C(C#N)C#N (stereo unspecified) | 3.86 µM |
| O=C(CSc1ncnc2nc[nH]c12)Nc1nnc(SCc2ccc(Cl)c(Cl)c2)s1 | 7.45 µM |
| C[C@@H]1O[C@@H](O[C@H]2C[C@@H](O)[C@]3(CO)[C@H]4[C@H](O)C[C@]5(C)[C@@H](C6=CC(=O)OC6)CC[C@]5(O)[C@@H]4CC[C@]3(O)C2)[C@H](O)[C@H](O)[C@H]1O | < 0.16 µM |
| O=C1C(C2=NC(c3ccccn3)C3C(=O)N(c4ccc(Cl)cc4Cl)C(=O)C23)=C(O)c2ccccc21 (stereo unspecified) | > 19.5 µM (inactive) |
| Cc1cc(Br)c(OCc2ccc(C(=O)N/N=C/c3ccc[nH]3)cc2)c(Br)c1 | 1.32 µM |
| Cc1cc(C(=O)CN2C(=O)C(=O)N(Cc3ccccc3)C2=O)c(C)n1Cc1ccccc1 | 11.8 µM |
| Cc1ccc(NC(=O)c2nc(S(=O)(=O)Cc3ccccc3C)ncc2Cl)cc1C | 7.64 µM |
| O=C1CC(c2cc(Br)ccc2F)c2cc3c(cc2N1)CCC3 (stereo unspecified) | 0.196 µM |
| Cc1cc(NCc2ccccn2)n2nc(C)c(-c3ccc(Cl)cc3)c2n1 | 5.92 µM |
| COc1ccc(NS(=O)(=O)c2cc(-c3cnc(C4CC4)o3)ccc2C)cc1 | 0.968 µM |
| N#CCc1ccc(NC(=O)Nc2cccc(Cl)c2)cc1 | 20 µM |
| O=C(CSc1nc(-c2ccccc2)cc(C(F)(F)F)n1)c1cccc([N+](=O)[O-])c1 | 20.4 µM |
| c1ccc(CNc2c(-c3cccc(SC4CCCCC4)c3)nc3ccccn23)cc1 | 3.6 µM |
| Cc1sc2nc(SCCN(C)C)n(-c3ccccc3)c(=O)c2c1-c1ccc(F)cc1 | 10.2 µM |
| O=C(Nc1ccc(S(=O)(=O)N2CCOCC2)cc1)c1ccc([N+](=O)[O-])o1 | 5.38 µM |
| CCc1ccc2c(c1)C1(C(=O)N2)N2CCCC2C(C(=O)c2ccc3ccccc3c2)C12C(=O)Nc1ccccc12 (stereo unspecified) | 3.69 µM |
| COc1c(Cl)cc(Cl)cc1/C=C/C(=O)c1ccc(NC(=O)c2cccs2)cc1 | 1.31 µM |
| COc1cccc(-c2sc3ccc(OC)cc3c2-c2ccc(O)cc2)c1 | 3.7 µM |
| Cc1nnc(-c2ccc(Oc3ccc(Cl)cc3)c([N+](=O)[O-])c2)o1 | 0.33 µM |
| O=[N+]([O-])c1cccc(C2NCC(c3ccccc3Cl)c3c2[nH]c2ccccc32)c1 (stereo unspecified) | 6.75 µM |
| COc1ccc(-c2oc3ccccc3c2C#Cc2cncn2C)cc1 | 4.37 µM |
| CN(C)c1ccc(/C=C(\Cl)c2nc3ccccc3s2)cc1 | 2.85 µM |
| O=c1[nH]c(NNC(=S)NCc2ccccc2)nc2c1C1(CCCCC1)Cc1ccccc1-2 | 3.91 µM |
| Cc1ccc(NC(=O)Cn2c(O)c(N=NC(=O)c3cc4ccccc4cc3O)c3ccccc32)cc1 | 3.92 µM |
| Cc1ccc(Cl)cc1NC(=O)c1ccccc1OCC(=O)Nc1ccc(Cl)cc1 | 11.5 µM |

| Compound | AC50 |
| --- | --- |
| COc1cccc(-c2sc3ccc(OC)cc3c2C#CCC(C)O)c1 (stereo unspecified) | 5.4 µM |
| COc1cc(/C=N/Nc2nc(Nc3ccccc3)nc(-n3nc(C)cc3C)n2)cc(OC)c1OC | 3.7 µM |
| O=C(NC(=S)Nc1ccccc1N1CCCCC1)c1ccc(F)cc1Cl | 2.84 µM |
| C=C(C)C1Cc2c(C)nn(-c3cccc4ccccc34)c2C1 (stereo unspecified) | 7.55 µM |
| O=C(CSc1ncnc2nc[nH]c12)c1ccc(Cl)cc1 | 6.23 µM |
| C=C(C)COc1ccc(-c2n[nH]c(C)c2-c2ccc(OC)cc2)c(O)c1 | 4.47 µM |
| COc1ccc(C2=NN(c3nc4ccccc4s3)C(=O)C2)cc1 | 4.7 µM |
| CCn1c2ccccc2c2cc(NC(=O)c3cccc([N+](=O)[O-])c3)ccc21 | 3.63 µM |
| CC#CCOC(=O)c1c(C)nc2sc3c(c2c1N)CCC(O)C3 (stereo unspecified) | 2.65 µM |
| Cc1c(-c2cccc(Cl)c2)nc2ccccc2c1C(=O)OC/C(O)=C(\C#N)c1nc2ccccc2[nH]1 | 3.12 µM |
| CCCCCCC[C@@H](C/C=C/CCC(=O)N(C)C/C(=C/Cl)C/C(=C\C(=O)N1CC(OC)=CC1=O)OC)OC | 5.38 µM |
| Cc1nc2c3cc(F)ccc3n(Cc3ccccc3)c2s1 | 0.825 µM |
| S=C(Nc1ccc(Oc2ccccc2)cc1)NC1CCCCCC1 | 4.84 µM |
| O=c1c2ccccc2nc(/C=C/c2ccccc2F)n1-c1ccccc1O | 6.44 µM |
| O=C1[C@@H]2Cc3c([nH]c4ccccc34)C(c3cccc(Br)c3)N2C(=O)CN1C1CCN(Cc2ccccc2)CC1 (stereo partly specified) | 7.12 µM |
| COc1ccc(S[C@@H](CCN2CC[C@H](NC(=O)OCc3ccccc3)CCC2=O)c2ccccc2)cc1 | 3.12 µM |
| O=c1[nH]c(=O)n(C2C[C@H](O)[C@@H](CO)O2)cc1C(F)(F)F (stereo partly specified) | 0.946 µM |
| O=C(CSc1nc2nc(-c3cccs3)cc(C(F)(F)F)c2c(=O)[nH]1)Nc1ccc(F)c(F)c1 | 2.56 µM |
| CC(=O)Oc1ccc2ccccc2c1C(NC(=O)Cc1ccccc1)c1ccc(Cl)cc1 (stereo unspecified) | 6.3 µM |
| Cc1noc(C)c1COc1cccc(C(=O)Nc2ccc(OCc3ccccc3)cc2)c1 | 15.5 µM |
| CN(C)S(=O)(=O)Oc1cccc(C(=O)Nc2ccc(Cl)c(Cl)c2)c1 | 6.22 µM |
| Cc1ccc(Sc2c([N+](=O)[O-])c(=O)n(C)c3ccccc23)cc1 | 7.05 µM |
| CCOC(=O)c1cnc(-n2nc(C)cc2C)nc1NNc1nc(-c2ccccc2)cc(-c2ccccc2)n1 | 3.25 µM |
| O=C(N/N=C/c1cc(Br)ccc1O)C(=O)Nc1ccccc1OC(F)(F)C(F)F | 3.6 µM |
| COc1ccc2cc(/C=N/NC(=O)c3ccc(CN(c4cccc(Cl)c4Cl)S(C)(=O)=O)cc3)c(Cl)nc2c1 | 0.211 µM |
| COc1cccc(-c2sc3ccccc3c2-c2ccc(OCCN3CCCCC3)cc2)c1 | 1.41 µM |

| Compound | AC50 |
| --- | --- |
| COc1ccc2nc(C)cc(N/N=C/c3ccccc3)c2c1 | 7.36 µM |
| S=C(Nc1cc(Cl)cc(Cl)c1)NC1CCN(Cc2ccccc2)CC1 | 4.23 µM |
| S=C(NCC1CCCCC1)Nc1ccc(Oc2ccccc2)cc1 | 5.41 µM |
| COc1ccc(C(=O)Nc2ccc(OCC(F)(F)C(F)F)c(C(F)(F)F)c2)cc1OC | 5.48 µM |
| Cc1c(O)cc2c(c1O)C(=O)CC(c1ccccc1)O2 (stereo unspecified) | 15.2 µM |
| CCN(CC)CCCNC(=S)N1CCN(c2nc(-c3ccccc3)cs2)CC1 | 5.65 µM |
| CCCc1cc(-c2nc(-c3ccc(C)cc3)cs2)ccn1 | 5.16 µM |
| O=c1c2ccccc2nc2n1CCc1c-2[nH]c2ccccc12 | > 19.5 µM (inactive) |
| COc1cccc(/C=C/c2ccc3ccccc3n2)c1OC(C)=O | 11.7 µM |
| Cc1ccc(N2C(=O)NC(=O)/C(=C\C=C\c3ccco3)C2=O)cc1 | 4.54 µM |
| CC1(C)C[C@@H]2C[C@@](C)(CN2C(=O)c2cc(COc3cccc(C(F)(F)F)c3)on2)C1 | 4.8 µM |
| CCN1C(=O)C(=Cc2cccc(OC)c2Oc2ccc([N+](=O)[O-])cc2[N+](=O)[O-])SC1=S | 2.27 µM |
| COc1ccc([C@H]2Oc3cc(O)cc(O)c3C(=O)C2[C@@H]2C(=O)c3c(O)cc(O)cc3O[C@@H]2c2ccc(OC)cc2)cc1 (stereo partly specified) | 10.6 µM |
| COc1ccc(-n2cc(-c3ccccc3)c3c(N4CCOCC4)ncnc32)cc1 | 6.91 µM |
| Cc1ccc(-c2nnc(N3CCC(C)CC3)c3ccccc23)cc1C | 4.3 µM |
| CCOC(=O)c1sc(NC(=O)c2cc(-c3ccccc3C)nc3ccccc23)c(C#N)c1C | 5.17 µM |
| O=C1CC(c2ccc(F)cc2)CC2=C1C=Nc1ccccc1N2 (stereo unspecified) | > 19.5 µM (inactive) |
| Cc1ccc(C)c(N2CCN(C(=O)c3ccc4c(c3)c(C)c(C)n4C)CC2)c1 | 9.07 µM |
| COc1ccc2cc1Oc1ccc(cc1)C[C@H]1c3c(cc(OC)c4c3Oc3c(ccc5c3[C@H](C2)N(C)CC5)O4)CCN1C | 3.63 µM |
| OCCNc1nc(Nc2ccc(Cl)c(Cl)c2)nc2ccccc12 | 6.96 µM |
| CC(=O)c1ccc(-c2cc([C@H]3[C@H]4C=CC[C@@H](C)[C@@H]4C(=O)N3Cc3ccccc3)ccc2F)cc1 | 6.87 µM |
| COc1cccc(NP(=O)(Oc2ccc(Cl)cc2)Oc2ccc(Cl)cc2)c1 | 5.83 µM |
| CCCCN(CC)S(=O)(=O)c1ccc(C(=O)N(CCCN(C)C)c2nc3cc(C)cc(C)c3s2)cc1 | 7.21 µM |
| COC(=O)c1c(-c2ccc(N(C)C)cc2)sc2ccc(OC)cc12 | > 19.5 µM (inactive) |
| O=[N+]([O-])c1ccc(S(=O)(=O)Nc2ccc(-c3csc(-c4ccccc4)n3)cc2)cc1 | 4.06 µM |
| COc1ccc(/C=N/N(c2ccccc2)c2ccccc2)cc1O | 7.09 µM |

| Compound | AC50 |
| --- | --- |
| CC1(O)CC(c2ccc(Cl)cc2)=NN1C(=O)c1ccc([N+](=O)[O-])cc1 (stereo unspecified) | 6.72 µM |
| CCOC(=O)c1c(NC(=O)c2nn(CC)cc2Br)sc2c1CCCCC2 | 1.95 µM |
| COc1ccc(/C=N/Nc2cc(N3CCCC3)nc(N3CCCC3)n2)cc1 | 5.14 µM |
| C/C(=N\NC(=O)c1nnn(-c2nonc2N)c1CN1CCCCC1)c1ccccc1O | 4.26 µM |
| O=[N+]([O-])c1ccc(O)c(-c2nc(-c3ccccc3)c(-c3cccs3)[nH]2)c1 | 1.69 µM |
| Cc1cc(C)cc(NS(=O)(=O)c2ccc(Oc3ncc(C(F)(F)F)cc3Cl)cc2)c1 | 4.3 µM |
| CCCc1cc(-c2nc(N)ncc2-c2ccc3c(c2)OCCCO3)c(O)cc1OC | 4.18 µM |
| Fc1cccc(-c2cc3nc4c(c(NCc5ccco5)n3n2)CCCC4)c1 | 7.77 µM |
| O=C1C2C3C=CC(C4CC34)C2C(=O)N1/N=C/c1ccc(-c2ccc(F)cc2[N+](=O)[O-])o1 (stereo unspecified) | 1.21 µM |
| O=C(/C=C/c1ccncc1)c1ccc(NC(=O)c2ccccc2F)cc1 | 4.38 µM |
| O=C(NNC1=C(C(=O)C(F)(F)F)CCC1)c1ccc(Br)cc1 | 3.6 µM |
| Cc1cc(C)nc(SCc2ccc(C(=O)NNC(=O)Nc3cccc(Cl)c3)cc2)n1 | 3.92 µM |
| CCOC(=O)c1c(NC(C)=O)sc2c1CCC(C=O)=C2Sc1ccccc1 | 3.63 µM |
| Cc1cccc2c1NC(=O)/C2=C\C(=O)c1cccs1 | 6.66 µM |
| CCCc1cc(=O)[nH]c(SCC(=O)Nc2sc(C(N)=O)c(C)c2C(=O)OCCOC)n1 | 4.25 µM |
| O=c1[nH]c(/C(Cl)=C/c2cc(Cl)ccc2O)nc2cc(Cl)ccc12 | 2.37 µM |
| Cc1cc([N+](=O)[O-])nn1Cc1ccc(C(=O)N/N=C/c2ccc(O)cc2O)cc1 | 2.25 µM |
| Fc1ccc(NC(=S)Nc2cc(-c3ccccc3)[nH]n2)cc1Cl | 3.46 µM |
| CC(C)Cc1nc2oc3c(Cl)ncnc3c2c2c1CCC2 | 3.72 µM |
| CCS(=O)(=O)Nc1ccc(-c2cc(-c3ccccc3)c3cc(C)ccc3n2)cc1 | 3.85 µM |
| COc1ccc(/C=N/NC(=O)c2cc(C34CC5CC(CC(C5)C3)C4)[nH]n2)cc1O | 1.8 µM |
| CCOC(=O)c1cccc(C2=CC(=O)C[C@H](c3ccc(Cl)cc3)C2)c1 | 2.82 µM |
| O=C(Nc1nc2ccc(SC(F)F)cc2s1)c1ccc(NS(=O)(=O)c2ccc(F)c(F)c2)cc1 | 3.58 µM |

Source: PubChem BioAssay AID463074 (Broad Institute, 2010)
